The target in the test is T1, 11β-HSD1 (Homo sapiens, UniProt P28845).
T1 construct: detecting cortisol generated from cortisterone by human liver microsomes; from tissue; host or cells: human liver microsomes
Nature of the test: In vitro inhibition of 11β-HSD1, HTRF detection of cortisol generated from cortisone by human liver microsomes. Format: biochemical. Particulars: 11β-HSD IC50 (nM), 1 hour at 37° C., pH 6.0, NADPH 200 μM, cortisone 80 nM, inhibition relative to carbenoxolone signal. The method in brief:
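Inhibition expressed against the carbenoxolone signal and fitted to IC50 curves. Readout: HTRF competition between microsomal cortisol and XL665-labelled cortisol for Eu-cryptate anti-cortisol antibody (typically 2 h), with emission ratio 665/615 calibrated to cortisol concentration.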
On the technique in general: TR-FRET usually uses a lanthanide donor and a delayed reading to cut background.

Drawing on US8859580B2 (Boehringer Ingelheim International GmbH, priority 2007, dated 2014), this text covers IC50 for 21 molecules.

T1 sequence (P28845 whole entry): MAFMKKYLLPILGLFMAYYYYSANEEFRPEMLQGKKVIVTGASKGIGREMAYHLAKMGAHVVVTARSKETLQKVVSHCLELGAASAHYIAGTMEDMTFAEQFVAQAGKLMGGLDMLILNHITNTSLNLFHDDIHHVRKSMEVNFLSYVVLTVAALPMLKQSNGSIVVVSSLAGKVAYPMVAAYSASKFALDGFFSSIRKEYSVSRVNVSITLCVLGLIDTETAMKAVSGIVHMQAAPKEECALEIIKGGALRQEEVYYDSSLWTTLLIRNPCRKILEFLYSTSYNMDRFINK

The molecule `C[C@@H]1[C@H]2Cc3ccc(C(N)=O)cc3[C@]1(C)CCN2C(=O)c1ccc2nc[nH]c2c1` [Example 157, (2R,6R,11S)-3-(3H-Benzoimidazole-5-carbonyl)-6,11-dimethyl-1,2,3,4,5,6-hexahydro-2,6-methano-benzo[d]azocine-8-carboxylic acid amide] showed an IC50 of 335 nM.
In the case of `CC1(C)[C@H]2Cc3c(C(N)=O)cccc3[C@]1(C)CCN2C(=O)c1ccc2nc[nH]c2c1` [Example 160, (2R,6S)-3-(3H-Benzoimidazole-5-carbonyl)-6,11,11-trimethyl-1,2,3,4,5,6-hexahydro-2,6-methano-benzo[d]azocine-10-carboxylic acid amide], the IC50 was determined as 2180 nM.
Take `CN(C)C(=O)c1ccc2c(c1)CC1N(C(=O)c3ccc4nc[nH]c4c3)CCC2(C)C1(C)C` (stereo not drawn) [Example 161, 3-(3H-Benzoimidazole-5-carbonyl)-6,11,11-trimethyl-1,2,3,4,5,6-hexahydro-2,6-methano-benzo[d]azocine-9-carboxylic acid dimethylamide]: the half-maximal inhibitory concentration (IC50) was determined as 1750 nM.
`CNC(=O)c1ccc2c(c1)CC1N(C(=O)c3ccc4nc[nH]c4c3)CCC2(C)C1(C)C` (stereo not drawn) [Example 162, 3-(3H-Benzoimidazole-5-carbonyl)-6,11,11-trimethyl-1,2,3,4,5,6-hexahydro-2,6-methano-benzo[d]azocine-9-carboxylic acid methylamide] registered an IC50 of 1090 nM.
For `CC12CCN(C(=O)c3ccc4nc[nH]c4c3)C(Cc3cc(C(N)=O)ccc31)C2(C)C` (stereo not drawn) [Example 163, 3-(3H-Benzoimidazole-5-carbonyl)-6,11,11-trimethyl-1,2,3,4,5,6-hexahydro-2,6-methano-benzo[d]azocine-9-carboxylic acid amide], half-maximal inhibition (IC50) required 249 nM.
`CCCN(C)C(=O)c1ccc(C(=O)N2CC[C@@]3(C)c4cccc(O)c4C[C@@H]2C3(C)C)cc1` [Example 167, 4-[(2R,6S)-10-Hydroxy-6,11,11-trimethyl-1,2,5,6-tetrahydro-4H-2,6-methano-benzo[d]azocine-3-carbonyl]-N-methyl-N-propyl-benzamide]: the IC50 was determined as 291 nM.
The molecule `CCN(CC)C(=O)c1ccc(C(=O)N2CC[C@@]3(C)c4cccc(O)c4C[C@@H]2C3(C)C)cc1` [Example 168, N,N-Diethyl-4-[(2R,6S)-10-hydroxy-6,11,11-trimethyl-1,2,5,6-tetrahydro-4H-2,6-methano-benzo[d]azocine-3-carbonyl]-benzamide] showed a 50% inhibitory concentration (IC50) of 561 nM.
`CC1(C)[C@H]2Cc3c(O)cccc3[C@]1(C)CCN2C(=O)c1ccc(C(=O)N2CCCCC2)cc1` [Example 169, [(2R,6S)-10-Hydroxy-6,11,11-trimethyl-1,2,5,6-tetrahydro-4H-2,6-methano-benzo[d]azocin-3-yl]-[4-(piperidine-1-carbonyl)-phenyl]-methanone] displayed an IC50 of 950 nM.
`CN(Cc1ccccc1)C(=O)c1ccc(C(=O)N2CC[C@@]3(C)c4cccc(O)c4C[C@@H]2C3(C)C)cc1` [Example 170, N-Benzyl-4-[(2R,6S)-10-hydroxy-6,11,11-trimethyl-1,2,5,6-tetrahydro-4H-2,6-methano-benzo[d]azocine-3-carbonyl]-N-methyl-benzamide] returned a 50% inhibitory concentration (IC50) of 626 nM.
As for `CCCNC(=O)c1ccc(C(=O)N2CC[C@@]3(C)c4cccc(O)c4C[C@@H]2C3(C)C)cc1` [Example 171, 4-[(2R,6S)-10-Hydroxy-6,11,11-trimethyl-1,2,5,6-tetrahydro-4H-2,6-methano-benzo[d]azocine-3-carbonyl]-N-propyl-benzamide], the half-maximal inhibitory concentration (IC50) was found to be 1650 nM.
Consider `C[C@@H]1[C@H]2Cc3ccc(CN)cc3[C@]1(C)CCN2C(=O)c1ccc2nc[nH]c2c1` [Example 172, [(2R,6R,11S)-8-Aminomethyl-6,11-dimethyl-1,2,5,6-tetrahydro-4H-2,6-methano-benzo[d]azocin-3-yl]-(3H-benzoimidazol-5-yl)-methanone], for which the IC50 amounted to 1720 nM.
Molecule `CC12CCN(C(=O)c3ccc4nc[nH]c4c3)C(Cc3cc(CN)ccc31)C2(C)C` (stereo not drawn) [Example 173, (9-Aminomethyl-6,11,11-trimethyl-1,2,5,6-tetrahydro-4H-2,6-methano-benzo[d]azocin-3-yl)-(3H-benzoimidazol-5-yl)-methanone] had an IC50 of 1690 nM.
In the case of `CC12CCN(C(=O)c3ccc4ncsc4c3)C(Cc3ccccc31)C2` (stereo not drawn) [Example 174, Benzothiazol-6-yl-(6-methyl-1,2,5,6-tetrahydro-4H-2,6-methano-benzo[d]azocin-3-yl)-methanone], the IC50 was determined as 406 nM.
In turn, `CC12CCN(C(=O)c3ccc4[nH]cnc4c3)C(Cc3cc(/C(N)=N/O)ccc31)C2(C)C` (stereo not drawn) [Example 175, 3-(1H-Benzoimidazole-5-carbonyl)-N-hydroxy-6,11,11-trimethyl-1,2,3,4,5,6-hexahydro-2,6-methano-benzo[d]azocine-9-carboxamidine] showed an IC50 of 344 nM.
Consider `Cc1nc(-c2ccc3c(c2)CC2N(C(=O)c4ccc5[nH]cnc5c4)CCC3(C)C2(C)C)no1` (stereo not drawn) [Example 176, (1H-Benzoimidazol-5-yl)-[6,11,11-trimethyl-9-(5-methyl-[1,2,4]oxadiazol-3-yl)-1,2,5,6-tetrahydro-4H-2,6-methano-benzo[d]azocin-3-yl]-methanone], for which the IC50 is 603 nM.
With `N#CC12CCN(C(=O)c3ccc4ncsc4c3)C(Cc3ccc(O)cc31)C2` (stereo not drawn) [Example 177, 3-(Benzothiazole-6-carbonyl)-8-hydroxy-2,3,4,5-tetrahydro-1H-2,6-methano-benzo[d]azocine-6-carbonitrile], the IC50 was 8910 nM.
As for `CC(=O)NCc1ccc2c(c1)CC1N(C(=O)c3ccc4nc[nH]c4c3)CCC2(C)C1(C)C` (stereo not drawn) [Example 178, N-[3-(3H-Benzoimidazole-5-carbonyl)-6,11,11-trimethyl-1,2,3,4,5,6-hexahydro-2,6-methano-benzo[d]azocin-9-ylmethyl]-acetamide], the figure is 159 nM; as for `CC(=O)Nc1ccc2c(c1)CC1N(C(=O)c3ccc4nc[nH]c4c3)CCC2(C)C1(C)C` (stereo not drawn) [Example 179, N-[3-(3H-Benzoimidazole-5-carbonyl)-6,11,11-trimethyl-1,2,3,4,5,6-hexahydro-2,6-methano-benzo[d]azocin-9-yl]-acetamide], 199 nM.
As to `Cc1occc1C(=O)N1CC[C@@]2(C)c3cccc(O)c3C[C@@H]1C2(C)C` [Example 180, [(2R,6S)-10-Hydroxy-6,11,11-trimethyl-1,2,5,6-tetrahydro-4H-2,6-methano-benzo[d]azocin-3-yl]-(2-methyl-furan-3-yl)-methanone], the IC50 was 1320 nM.
`CC12CCN(C(=O)c3ccc4nc[nH]c4c3)C(Cc3cc(NS(C)(=O)=O)ccc31)C2(C)C` (stereo not drawn) [Example 181, N-[3-(3H-Benzoimidazole-5-carbonyl)-6,11,11-trimethyl-1,2,3,4,5,6-hexahydro-2,6-methano-benzo[d]azocin-9-yl]-methanesulfonamide] came in with a half-inhibitory concentration (IC50) of 147 nM.
For `CC1(C)C2CCN(C(=O)c3ccc4nc[nH]c4c3)C1Cc1c(O)cccc12` (stereo not drawn) [Example 183, (3H-Benzoimidazol-5-yl)-(10-hydroxy-11,11-dimethyl-1,2,5,6-tetrahydro-4H-2,6-methano-benzo[d]azocin-3-yl)-methanone], the IC50 worked out at 155 nM.

The term IC50 denotes the concentration that inhibits the measured activity by half.
